Source: patent publication US9695149B2, “1,2,6-substituted benzimidazoles as flap modulators” (JANSSEN PHARMACEUTICA NV, priority 2013, dated 2017)
Structures can show the parent of a compound that is named as a salt.

How the values were obtained:
human FLAP = human FLAP (Homo sapiens (Human), UniProt P20292); experiment: FLAP binding assay (HTRF format); details: human FLAP-containing Sf-9 membranes, wild type; average of runs
Method: (§1) The ability of the compounds of the present invention to treat a FLAP-mediated disease and/or disorder, or associated symptoms or complications thereof, was determined using the following procedures. Binding assay data represent the average value obtained from two different assay plates, with samples run in duplicate on each plate. Human whole blood assay data represent a single replicate on an assay plate using whole blood from at least one healthy donor.
The assay below is used to test the modulatory activity of compounds against FLAP. Human and mouse FLAP-encoding DNA was amplified by polymerase chain reaction and cloned into pFastBac1 (Invitrogen) with a NH2-terminal 6-His tag for expression in Spodoptera frugiperda (Sf-9) cells. FLAP-containing membranes were prepared as was a FITC-labeled FLAP modulator (3-(3-(tert-butylthio)-1-(4-chlorobenzyl)-5-(quinolin-2-ylmethoxy)-1H-indol-2-yl)-2,2-dimethylpropanoic acid). The FLAP binding assay is performed in HTRF format (homogeneous time resolved fluorescence). […] The reaction is allowed to proceed for two hours after which the plate is read on an Envision plate reader in HTRF mode. Data are expressed as a HTRF ratio.
For human FLAP binding assays, data are analyzed with 3DX Explorer software. […] For analysis, data from multiple runs are averaged and each compound may be tested in 2 to 20 runs. Each run comprises two plates and each plate includes duplicates. Data from each plate is averaged and data are imported into 3DX. The data from multiple runs are aggregated as the average of duplicates of the calculated ratios in order to calculate Ki and IC50 values. Numbers in parentheses are the number of runs for the assay.

[1] = system: leukotriene pathway in human whole blood; experiment: Human whole blood assay (LTB4, A23187-stimulated); assay type: cell-based; details: human whole blood diluted 1:1 in RPMI, calcium ionophore A23187 7 μg/mL, 30 min
Method: as §1
An in vitro cellular assay was performed using human whole blood collected in heparin-containing tubes, which was used to test the ability of compounds to modulate the leukotriene pathway in human whole blood. The blood was diluted 1:1 in RPMI medium, pre-incubated for 15 min at 37° Celsius with test compounds at various concentrations, and then stimulated with calcium ionophore, A23187 (7 μg/mL), for 30 min at 37° Celsius. The samples were then centrifuged and plasma was removed. The plasma was diluted in assay buffer and LTB4 levels were measured using a commercial kit (Enzo Life Sciences). The concentration of each compound that was required for half-maximal inhibition (modulation) of […] (IC50) was calculated by a 4-parameter equation using the program GraphPad Prism (GraphPad software). For analysis, data are imported into 3DX and aggregated as the average of duplicates of the calculated ratios in order to calculate Ki and IC50 values. Numbers in parentheses are the number of runs for the assay.

Chain of human FLAP (P20292 whole entry): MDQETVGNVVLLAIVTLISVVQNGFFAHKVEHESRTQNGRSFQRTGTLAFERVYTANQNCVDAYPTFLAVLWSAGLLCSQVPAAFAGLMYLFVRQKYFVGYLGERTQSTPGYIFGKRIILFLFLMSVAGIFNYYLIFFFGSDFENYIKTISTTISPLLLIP

Row | SMILES | Ki (human FLAP) [nM] | IC50 [1] [nM] | IC50 ([1]; Homo sapiens, 0.5 h) [nM]
1 | Cc1ccc(COc2ccc3nc(C4CCCC[C@H]4C(=O)O)n(Cc4cccc(C)c4)c3c2)nc1 (mixture of isomers) [Example 201, racemic cis-2-{1-(3-Methylbenzyl)-6-[(5-methylpyridin-2-yl)methoxy]-1H-benzimidazol-2-yl}cyclohexanecarboxylic acid] | 12 | 1680 | –
2 | Cn1ccc(COc2ccc3nc(C4CCCC[C@H]4C(=O)O)n(Cc4cccc(N5CCC(F)(F)CC5)c4)c3c2)n1 (mixture of isomers) [Example 203, racemic cis-2-{1-[3-(4,4-Difluoropiperidin-1-yl)benzyl]-6-[(1-methyl-1H-pyrazol-3-yl)methoxy]-1H-benzimidazol-2-yl}cyclohexanecarboxylic acid] | 18 | – | 730
3 | Cn1ccc(COc2ccc3nc(C4CCCC[C@H]4C(=O)O)n(Cc4cccc(N5CCCCC5)c4)c3c2)n1 (mixture of isomers) [Example 204, racemic cis-2-{6-[(1-Methyl-1H-pyrazol-3-yl)methoxy]-1-(3-piperidin-1-ylbenzyl)-1H-benzimidazol-2-yl}cyclohexanecarboxylic acid] | 31 | – | 240
4 | Cn1ccc(COc2ccc3nc(C4CCCC[C@H]4C(=O)O)n(Cc4cccc(N5CC(F)(F)C5)c4)c3c2)n1 (mixture of isomers) [Example 205, racemic cis-2-{1-[3-(3,3-Difluoroazetidin-1-yl)benzyl]-6-[(1-methyl-1H-pyrazol-3-yl)methoxy]-1H-benzimidazol-2-yl}cyclohexanecarboxylic acid as the trifluoroacetic acid salt] | 21 | – | 1670
5 | Cc1ccc(COc2ccc3nc(C4CCCC[C@H]4C(=O)O)n(Cc4ccccc4C)c3c2)nc1 (mixture of isomers) [Example 206, racemic trans-2-{1-(2-Methylbenzyl)-6-[(5-methylpyridin-2-yl)methoxy]-1H-benzimidazol-2-yl}cyclohexanecarboxylic acid] | 45 | – | 1270
6 | Cc1ccc(COc2ccc3nc(C4CCCC[C@H]4C(=O)O)n(Cc4ccccc4C)c3c2)nc1 (mixture of isomers) [Example 207, racemic cis-2-{1-(2-Methylbenzyl)-6-[(5-methylpyridin-2-yl)methoxy]-1H-benzimidazol-2-yl}cyclohexanecarboxylic acid] | 31 | 1810 | –
7 | Cc1ccc(COc2ccc3nc(C4CCCC[C@H]4C(=O)O)n(Cc4cc(N5CCC(F)(F)CC5)ccc4F)c3c2)nc1 (mixture of isomers) [Example 208, racemic cis-2-{1-[5-(4,4-Difluoropiperidin-1-yl)-2-fluorobenzyl]-6-[(5-methylpyridin-2-yl)methoxy]-1H-benzimidazol-2-yl}cyclohexanecarboxylic acid] | 9.5 | – | 370
8 | Cc1ccc(COc2ccc3nc(C4CCCC[C@H]4C(=O)O)n(Cc4cc(N5CCCCC5)ccc4F)c3c2)nc1 (mixture of isomers) [Example 209, racemic cis-2-{1-(2-Fluoro-5-piperidin-1-ylbenzyl)-6-[(5-methylpyridin-2-yl)methoxy]-1H-benzimidazol-2-yl}cyclohexanecarboxylic acid] | 3.8 | – | 150
9 | Cc1ccc(COc2ccc3nc(C4CCCC[C@H]4C(=O)O)n(Cc4cccc(N5CC(F)(F)C5)c4)c3c2)nc1 (mixture of isomers) [Example 219, racemic cis-2-{1-[3-(3,3-Difluoroazetidin-1-yl)benzyl]-6-[(5-methylpyridin-2-yl)methoxy]-1H-benzimidazol-2-yl}cyclohexanecarboxylic acid] | 9.1 | – | 1600
10 | Cc1ccc(COc2ccc3nc(C4CCCC[C@H]4C(=O)O)n(Cc4cccc(N5CCC(F)(F)CC5)c4)c3c2)nc1 (mixture of isomers) [Example 221, racemic cis-2-{1-[3-(4,4-Difluoropiperidin-1-yl)benzyl]-6-[(5-methylpyridin-2-yl)methoxy]-1H-benzimidazol-2-yl}cyclohexanecarboxylic acid] | 6.6 | – | 500
